Test results from PMC11249646, “Small-Molecule Disruptors of the Interaction between Calcium- and Integrin-Binding Protein 1 and Integrin αIIbβ3 as Novel Antiplatelet Agents” (ACS Pharmacology & Translational Science, 2024).
Like-named read-outs stand apart in the source and are kept apart here.

Columns and labels:
[1] = biological target: T1, CIB1 and αIIb interaction (CIB1-GST : F-αIIb peptide) (Homo sapiens, UniProt Q99828); experiment: FP assay, 1536-well qHTS format (primary and confirmatory screen); format: binding; details: for Curve Class (confirmatory screen) / CONFIRMATORY SCREEN Curve Class: qHTS curve class
T1 construct: made in house; host or cells: BL-21 plus RIL cells (E. coli)
T1 sequence (Q99828 1-191): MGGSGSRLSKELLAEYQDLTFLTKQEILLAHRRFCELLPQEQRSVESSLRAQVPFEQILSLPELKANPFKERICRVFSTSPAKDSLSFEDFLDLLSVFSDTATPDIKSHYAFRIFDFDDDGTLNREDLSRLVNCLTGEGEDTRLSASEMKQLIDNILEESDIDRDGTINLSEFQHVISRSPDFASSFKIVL

[2] = biological target: T2, GST-CIB1 : F-scrambled peptide (Homo sapiens, UniProt Q99828); experiment: FP scrambled-peptide counter screen, 1536-well format; format: binding; details: for Curve Class (counterscreen) / COUNTERSCREEN Curve Class: qHTS curve class; for IC50: read-out: IC50 [μM] (counterscreen)
T2 construct: made in house; host or cells: BL-21 plus RIL cells (E. coli)
T2 sequence (Q99828 1-191): T1 sequence (Q99828 1-191)

[3] = Table S3, confirmatory screen, a negative sign marks inhibitory curves
[4] = Table S3, confirmatory screen, negative = inhibition
[5] = qHTS FP screen hits, Table S2, negative = inhibition
[6] = qHTS FP screen hits, Table S2, read-out: IC50
[7] = Table S3, counterscreen, a negative sign marks inhibitory curves
[8] = Table S3, counterscreen, negative = inhibition
[9] = confirmatory screen, negative sign = inhibitory curve
[10] = qHTS primary screen hits, Table S2, negative = inhibition
[11] = qHTS primary screen hits, Table S2, negative sign = inhibitory curve, several classes where COUNT > 1
[12] = qHTS primary screen hits, Table S2, read-out: IC50
[13] = scrambled-peptide counterscreen
[14] = qHTS FP screen hits, Table S2, one class per curve where COUNT > 1, negative sign = inhibitory curve
[15] = counterscreen, negative sign = inhibitory curve
[16] = Table S3, counterscreen, YES/NO call
[17] = Table S3, confirmatory screen, YES/NO call
[18] = Table S3, confirmatory screen, read-out: IC50 [μM] (confirmatory screen)
[19] = confirmatory screen, read-out: IC50 [μM] (confirmatory screen)
[20] = qHTS primary screen hits, Table S2, negative sign = inhibitory curve

Row | Compound | Curve Class (confirmatory screen) [1, 3] | Efficacy (%) (confirmatory screen) [1, 4] | Efficacy (%) [1, 5] [%] | Curve Class (counterscreen) [2, 7] | Efficacy (%) (counterscreen) [2, 8] | Efficacy (%) [1, 10] [%] | Curve Class [1, 11] | IC50 [1, 12] [µM] | Efficacy (%) (confirmatory screen) ([1]; confirmatory screen) | Confirm? (confirmatory screen) ([1]; confirmatory screen, YES/NO) | Curve Class (confirmatory screen) [1, 9] | Efficacy (%) (counterscreen) ([2]; counterscreen) | Curve Class (counterscreen) [2, 15] | IC50 ([2]; Table S3, counterscreen) [µM] | IC50 [1, 19] [µM] | further results
1 | Cc1ccccc1NC(=O)CN1C(=O)N/C(=C\c2cn(-c3cccc(C(=O)O)c3)cn2)C1=O [NCGC00182400-01] | 4 | -21 | -24 | 4 | -14 |  |  |  |  |  |  |  |  |  |  | IC50 [1, 6]: 11.2 µM
2 | O=S(=O)(c1ccc2nc(Cl)c(Cl)nc2c1)N1CCN(S(=O)(=O)c2c(F)cccc2F)CC1 [NCGC00182436-01] |  |  |  |  |  | -32 | -1.4 | 2.2 |  |  |  |  |  |  |  | CONFIRMATORY SCREEN Confirm? ([1]; confirmatory screen, YES/NO call): YES; CONFIRMATORY SCREEN Curve Class [1, 9]: -1.4; CONFIRMATORY SCREEN Efficacy (%) ([1]; confirmatory screen, negative = inhibition): -43%; IC50 ([1]; confirmatory screen, read-out: CONFIRMATORY SCREEN IC50): 5.6 µM; COUNTERSCREEN Efficacy (%) [2, 13]: -18%; COUNTERSCREEN Confirm? ([2]; scrambled-peptide counterscreen, YES/NO call): YES; COUNTERSCREEN Curve Class [2, 13]: 4
3 | O=C(O)c1ccc(-n2cccc2/C=C2\SC(=O)N(Cc3cccc(Cl)c3)C2=O)cc1 [NCGC00182735-01] |  |  | -66 |  |  |  |  |  | -109 | YES | -2.1 | -61 | -2.2 |  |  | Curve Class [1, 14]: -2.2; IC50 ([2]; counterscreen): 56.2 µM
4 | C/C(=C\c1ccc2c(c1)OCO2)C1Nc2cccc3cccc(c23)N1 [NCGC00182904-03] | 4 | -33 |  | -1.2 | -77 | -34 | -2.4 | 35.5 |  |  |  |  |  | 12.6 |  | Confirm? (counterscreen) [2, 16]: YES
5 | COc1ccccc1Nc1cc2ccccc2c(O)n1 [NCGC00183215-01] | -2.1 | -92 |  | -2.1 | -136 | -67 | -2.2 | 50.1 |  |  |  |  |  | 35.5 |  | Confirm? (confirmatory screen) [1, 17]: YES; IC50 [1, 18]: 39.8 µM
6 | C=CCNc1oc(-c2ccc(Cl)cc2)nc1C#N.O=C(O)C(F)(F)F [NCGC00183412-01] |  |  | -54 |  |  |  |  |  | -72 | YES | -2.2 | -30 | -1.2 |  | 31.6 | Curve Class [1, 14]: -2.2; IC50 [1, 6]: 50.1 µM; IC50 ([2]; counterscreen): 12.6 µM
7 | NC(=O)C1CCN(c2nc(-c3ccccc3N)cs2)CC1.O=C(O)C(F)(F)F [NCGC00183555-01] | 4 | -21 |  | -1.4 | -31 | -77 | -2.2 | 39.8 |  |  |  |  |  | 28.2 |  | Confirm? (counterscreen) [2, 16]: YES
8 | CC(=O)NC(c1cccs1)c1cc(Br)c2cccnc2c1O (stereo not shown) [NCGC00183685-02] |  |  |  |  |  |  |  |  |  |  |  |  |  |  |  | CONFIRMATORY SCREEN Efficacy (%) ([1]; confirmatory screen): -36%; CONFIRMATORY SCREEN Curve Class ([1]; confirmatory screen): 4; COUNTERSCREEN Efficacy (%) ([2]; counterscreen): -11%; COUNTERSCREEN Curve Class ([2]; counterscreen): 4
9 | CCC(=O)NC(c1cccs1)c1cc(Br)c2cccnc2c1O (stereo not shown) [NCGC00183689-01] |  |  | -54 |  |  |  |  |  | -56 | YES | -2.4 | -21 | 4 |  | 25.1 | Curve Class [1, 14]: -1.2; IC50 [1, 6]: 28.2 µM; Confirm? (counterscreen) ([2]; counterscreen, YES/NO): YES
10 | NC(=O)c1ccnc2c(O)cccc12.O=C(O)C(F)(F)F [NCGC00183783-01] |  |  |  |  |  | -40 |  | 20 | -22 | YES | -2.4 | -17 | 4 |  | 50.1 | Curve Class [1, 20]: -1.2; Confirm? (counterscreen) ([2]; counterscreen, YES/NO): YES
11 | O=C(O)C(F)(F)F.Oc1cccc2c(-c3nnn[nH]3)ccnc12 [NCGC00183786-01] |  |  |  |  |  | -27 | -1.2 | 3.5 | -29 | YES | -1.4 | -23 | 4 |  | 25.1 | Confirm? (counterscreen) ([2]; counterscreen, YES/NO): YES
12 | CN1CCN(c2ccc(-c3cc(O)c4ncccc4c3)cc2)CC1.O=C(O)C(F)(F)F [NCGC00183803-01] |  |  | -51 |  |  |  |  |  |  |  |  |  |  |  |  | CONFIRMATORY SCREEN Efficacy (%) ([1]; confirmatory screen): -13%; CONFIRMATORY SCREEN Curve Class ([1]; confirmatory screen): 4; IC50 [1, 6]: 39.8 µM; COUNTERSCREEN Efficacy (%) ([2]; counterscreen): -12%; COUNTERSCREEN Curve Class ([2]; counterscreen): 4
13 | O=C(O)C(F)(F)F.O=C(c1ccc(-c2cc(O)c3ncccc3c2)cc1)N1CCNCC1 [NCGC00183806-01] | 4 | -11 |  | -1.2 | -59 | -40 |  | 39.8 |  |  |  |  |  | 35.5 |  | Curve Class [1, 20]: -2.2; Confirm? (counterscreen) [2, 16]: YES
14 | CN(C)CCCNC(=O)c1ccc(-c2cc(O)c3ncccc3c2)cc1 [NCGC00183808-06] | 4 | 0 |  | -2.4 | -38 |  |  |  |  |  |  |  |  | 70.8 |  | Confirm? (counterscreen) [2, 16]: YES
15 | CN1CCC(N(Cc2cccs2)c2ccccc2)CC1 [NCGC00183847-01] |  |  |  |  |  | -43 | -2.4 | 39.8 |  |  |  |  |  |  |  | CONFIRMATORY SCREEN Efficacy (%) ([1]; confirmatory screen): 0%; CONFIRMATORY SCREEN Curve Class ([1]; confirmatory screen): 4; COUNTERSCREEN Efficacy (%) ([2]; counterscreen): -12%; COUNTERSCREEN Curve Class ([2]; counterscreen): 4
16 | Cc1ccc2nc3sc(C(=O)NCc4ccco4)cc3cc2c1.O=C(O)C(F)(F)F [NCGC00183968-01] |  |  |  |  |  | -24 | -1.4 | 7.1 | -34 | YES | -1.2 | -27 | 4 |  | 15.8 | Confirm? (counterscreen) ([2]; counterscreen, YES/NO): YES
17 | CC(=O)Nc1sc2c(c1-c1nc3ccccc3o1)CCN(C(C)C)C2.O=C(O)C(F)(F)F [NCGC00184832-01] | -1.2 | -47 |  | -2.2 | -55 | -78 | -2.2 | 50.1 |  |  |  |  |  | 50.1 |  | Confirm? (confirmatory screen) [1, 17]: YES; IC50 [1, 18]: 39.8 µM
18 | Oc1ccc(-c2nnn[nH]2)c2cccnc12 [NCGC00184885-01] |  |  |  |  |  | -31 | -1.2 | 14.1 | -40 | YES | -3 | -19 | -1.4 |  | 79.4 | IC50 ([2]; counterscreen): 35.5 µM
19 | NC(=O)c1ccc(O)c2ncccc12 [NCGC00184888-01] |  |  |  |  |  | -24 | -1.4 | 14.1 |  |  |  |  |  |  |  | CONFIRMATORY SCREEN Efficacy (%) ([1]; confirmatory screen): -19%; CONFIRMATORY SCREEN Curve Class ([1]; confirmatory screen): 4; COUNTERSCREEN Efficacy (%) ([2]; counterscreen): -10%; COUNTERSCREEN Curve Class ([2]; counterscreen): 4
20 | NC(=O)C1CCN(c2ncc(Br)s2)CC1 [NCGC00184919-01] | -2.1 | -112 | -123 | -2.1 | -127 |  |  |  |  |  |  |  |  | 39.8 |  | Confirm? (confirmatory screen) [1, 17]: YES; IC50 [1, 18]: 50.1 µM; Curve Class [1, 14]: -2.1; IC50 [1, 6]: 39.8 µM
21 | CC(=O)Nc1sc2c(c1-c1nc3ccccc3s1)CNC2.O=C(O)C(F)(F)F [NCGC00185090-03] | 4 | -34 | -28 | -2.4 | -43 |  |  |  |  |  |  |  |  | 50.1 |  | IC50 [1, 6]: 12.6 µM; Confirm? (counterscreen) [2, 16]: YES
22 | CN1CCN(c2ccc(Nc3nn4c(=O)c5ccccc5nc4s3)cc2)CC1.O=C(O)C(F)(F)F [NCGC00186454-01] |  |  |  |  |  | -32 |  | 12.6 | -50 | YES | -2.2 | -37 | -2.4 |  | 50.1 | Curve Class [1, 20]: -1.4; IC50 ([2]; counterscreen): 79.4 µM
23 | CC1(C)N=C(Nc2nc3ccccc3o2)NC2=C1C(=O)CCC2.O=C(O)C(F)(F)F [NCGC00187643-01] |  |  |  |  |  | -35 | -2.2 | 20 |  |  |  |  |  |  |  | CONFIRMATORY SCREEN Efficacy (%) ([1]; confirmatory screen): -26%; CONFIRMATORY SCREEN Curve Class ([1]; confirmatory screen): 4; COUNTERSCREEN Efficacy (%) ([2]; counterscreen): -12%; COUNTERSCREEN Curve Class ([2]; counterscreen): 4
